BigSolDB 2.1

O=C(O)CCCCCCCCCCC(=O)O
solubility (mole fraction)
Conditions | 288.15 K | 293.15 K | 298.15 K | 303.15 K | 308.15 K | 313.15 K | 318.15 K | 323.15 K
in 2-butanone | 0.0025 | 0.0036 | 0.005 | 0.007 | 0.0097 | 0.0133 | 0.0189 | 0.0255
in 3-pentanone | 0.0013 | 0.0018 | 0.0026 | 0.0036 | 0.005 | 0.0068 | 0.0094 | 0.0128
in acetic acid | 0.0032 | 0.0045 | 0.006 | 0.0079 | 0.0112 | 0.0155 | 0.02 | 0.0268
in acetone | 0.003 | 0.0041 | 0.0058 | 0.0077 | 0.0107 | 0.0145 | 0.0193 | 0.0257
in ethanol | 0.0083 | 0.0107 | 0.0145 | 0.0194 | 0.025 | 0.0317 | 0.0408 | 0.0516
in ethyl acetate | 0.0012 | 0.0017 | 0.0024 | 0.0034 | 0.0048 | 0.0066 | 0.009 | 0.0122
